Measured values taken from ChEMBL document CHEMBL4346703, “Structure Overhaul Affords a Potent Purine PI3Kδ Inhibitor with Improved Tolerability” (J Med Chem, 2019).

Legend:
[1] = biological target: PI3-kinase p110-delta/p85-alpha (Homo sapiens, UniProt O00329); assay: Inhibition of N-terminal His6-tagged recombinant full length human p110delta/untagged recombinant full length human p85alpha expressed in baculovirus infected Sf21 insect cells using PIP2 as substrate preincubated for 15 mins followed by substrate addition and measured after 1 hr by HTRF assay
[2] = biological target: T1, Phosphatidylinositol 4,5-bisphosphate 3-kinase catalytic subunit delta isoform (Homo sapiens, UniProt O00329); assay: Inhibition of PI3Kdelta in human Ramos cells assessed as reduction in anti-IgM-antibody-induced phosphorylation of AKT at Ser473 residue preincubated for 20 mins followed by anti-IgM antibody stimulation and measured after 30 mins by alphascreen assay; assay type: cell-based
T1 sequence (O00329 whole entry): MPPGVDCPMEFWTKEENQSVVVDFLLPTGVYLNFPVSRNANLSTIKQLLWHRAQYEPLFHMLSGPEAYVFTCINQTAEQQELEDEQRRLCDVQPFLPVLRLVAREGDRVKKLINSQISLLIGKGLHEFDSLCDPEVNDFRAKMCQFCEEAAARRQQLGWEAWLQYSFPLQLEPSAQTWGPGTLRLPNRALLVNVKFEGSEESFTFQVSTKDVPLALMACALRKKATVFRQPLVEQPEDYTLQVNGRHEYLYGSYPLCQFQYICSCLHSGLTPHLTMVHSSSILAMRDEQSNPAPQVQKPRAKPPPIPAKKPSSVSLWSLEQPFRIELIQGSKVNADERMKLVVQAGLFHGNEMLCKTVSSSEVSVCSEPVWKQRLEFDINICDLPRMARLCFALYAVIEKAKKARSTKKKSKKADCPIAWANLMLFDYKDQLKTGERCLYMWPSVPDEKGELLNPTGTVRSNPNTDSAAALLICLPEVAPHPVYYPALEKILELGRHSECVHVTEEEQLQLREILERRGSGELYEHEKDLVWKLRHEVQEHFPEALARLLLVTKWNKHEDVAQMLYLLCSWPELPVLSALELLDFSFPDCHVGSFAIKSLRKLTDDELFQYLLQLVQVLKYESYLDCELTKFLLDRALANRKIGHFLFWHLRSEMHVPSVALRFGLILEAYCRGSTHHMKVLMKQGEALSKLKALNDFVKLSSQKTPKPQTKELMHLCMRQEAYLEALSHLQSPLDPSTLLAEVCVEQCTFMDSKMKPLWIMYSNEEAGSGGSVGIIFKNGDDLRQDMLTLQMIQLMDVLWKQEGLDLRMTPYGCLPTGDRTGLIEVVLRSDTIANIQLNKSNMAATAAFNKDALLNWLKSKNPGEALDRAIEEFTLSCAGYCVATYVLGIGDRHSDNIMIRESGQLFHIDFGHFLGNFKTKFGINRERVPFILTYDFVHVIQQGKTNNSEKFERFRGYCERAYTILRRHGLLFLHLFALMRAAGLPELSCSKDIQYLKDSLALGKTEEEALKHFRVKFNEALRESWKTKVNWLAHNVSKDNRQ

[3] = Inhibition of adenosine transporter in human HeLa cells assessed as reduction in [3H]adenosine uptake preincubated for 30 mins followed by [3H]adenosine addition and measured after 60 mins; assay type: ADME, cell-based
[4] = biological target: T1, Phosphatidylinositol 4,5-bisphosphate 3-kinase catalytic subunit delta isoform; assay: Inhibition of PI3Kdelta in human whole blood assessed as reduction in anti-CD79b antibody-induced CD69 expression preincubated for 60 mins followed by anti-CD79b antibody stimulation and measured after 3 hrs by FACS analysis; assay type: tissue-based
[5] = biological target: T1, Phosphatidylinositol 4,5-bisphosphate 3-kinase catalytic subunit delta isoform; assay: Inhibition of PI3Kdelta in human whole blood assessed as reduction in antihuman IgE antibody-stimulated CD63 expression preincubated for 30 mins followed by antihuman IgE antibody stimulation and measured after 20 mins by FACS analysis; assay type: tissue-based
Phosphodiesterase 1 = Phosphodiesterase 1 (Homo sapiens, UniProt P54750+Q01064+Q14123); assay: Inhibition of PDE1 (unknown origin); assay type: protein assay
[6] = biological target: cGMP-dependent 3',5'-cyclic phosphodiesterase (Homo sapiens, UniProt O00408); assay: Inhibition of PDE2 (unknown origin)
Phosphodiesterase 4 = Phosphodiesterase 4 (Homo sapiens, UniProt P27815+Q08499+Q07343+Q08493); assay: Inhibition of PDE4 (unknown origin); assay type: protein assay
[7] = biological target: cGMP-specific 3',5'-cyclic phosphodiesterase (Homo sapiens, UniProt O76074); assay: Inhibition of PDE5 (unknown origin)
Phosphodiesterase 6 = assay: Inhibition of PDE6 (unknown origin); assay type: protein assay, Homo sapiens
Phosphodiesterase 7 = Phosphodiesterase 7 (Homo sapiens, UniProt Q13946+Q9NP56); assay: Inhibition of PDE7 (unknown origin); assay type: protein assay
[8] = biological target: High affinity cGMP-specific 3',5'-cyclic phosphodiesterase 9A (Homo sapiens, UniProt O76083); assay: Inhibition of PDE9 (unknown origin)
[9] = biological target: cAMP and cAMP-inhibited cGMP 3',5'-cyclic phosphodiesterase 10A (Homo sapiens, UniProt Q9Y233); assay: Inhibition of PDE10 (unknown origin)
[10] = Volume of distribution in Wistar Han rat; assay type: ADME; conditions: in vivo
[11] = Unbound volume of distribution in Wistar Han rat; assay type: ADME; conditions: in vivo
[12] = Half-life in Wistar Han rat; assay type: ADME; conditions: in vivo
[13] = Oral bioavailability in Wistar Han rat; assay type: ADME, organism-based; conditions: in vivo
[14] = Unbound volume of distribution in Beagle dog; assay type: ADME, Canis lupus familiaris; conditions: in vivo
[15] = Oral bioavailability in Beagle dog; assay type: ADME, organism-based, Canis lupus familiaris; conditions: in vivo
[16] = Protein binding in Beagle dog plasma; assay type: ADME, cell-free, Canis lupus familiaris; conditions: read-out: PPB (converted)
Rattus norvegicus = assay: Hemodynamic activity in telemetered rat assessed as effect on arterial blood pressure at 60 mg/kg; assay type: ADME, organism-based; conditions: in vivo
[17] = fAUC in telemetered rat at 60 mg/kg; assay type: ADME, organism-based; conditions: in vivo
[18] = fCmax in telemetered rat at 60 mg/kg; assay type: ADME, organism-based; conditions: in vivo
[19] = fCmax in rat at 750 mg/kg administered for 4 days; assay type: ADME, organism-based; conditions: in vivo, 96 h
[20] = Toxicity in Beagle dogs assessed as body weight loss at 25 mg/kg administered for 8 days; assay type: organism-based, Canis lupus familiaris; conditions: dog, in vivo, 192 h
[21] = Cardiovascular toxicity in rat assessed as vascular injury at 750 mg/kg for 4 days; assay type: organism-based; conditions: in vivo, 96 h
Canis familiaris = assay: Hemodynamic activity in Beagle dog at 25 mg/kg administered for 8 days; assay type: ADME, organism-based, Canis lupus familiaris; conditions: in vivo, 192 h
[22] = Lipophilicity, log D of the compound; assay type: physicochemical; conditions: octanol/water
[23] = Solubility of the compound; assay type: physicochemical
Cytochrome P450 = assay: Inhibition of cytochrome P450 (unknown origin); assay type: ADME, protein assay; conditions: human
[24] = Drug recovery in rat bile after 24 hrs; assay type: ADME; conditions: read-out: Drug recovery
Homo sapiens [25] = organism: Homo sapiens; assay: Selectivity ratio of IC50 for N-terminal His6-tagged recombinant full length human p110beta/untagged recombinant full length human p85alpha expressed in baculovirus infected Sf21 insect cells to N-terminal His6-tagged recombinant full length human p110delta/untagged recombinant full length human p85alpha expressed in baculovirus infected Sf21 insect cells
Homo sapiens [26] = organism: Homo sapiens; assay: Selectivity ratio of IC50 for N-terminal His6-tagged recombinant full length human PI3Kgamma expressed in baculovirus infected Sf21 cells to IC50 for N-terminal His6-tagged recombinant full length human p110delta/untagged recombinant full length human p85alpha expressed in baculovirus infected Sf21 insect cells
[27] = Intrinsic clearance in rat microsomes; assay type: ADME, Microsome
[28] = Intrinsic clearance in rat hepatocytes; assay type: ADME, cell-based, Hepatocyte; conditions: read-out: CLH

Chain of PI3-kinase p110-delta/p85-alpha (P27986 whole entry, one chain of several, canonical isoform): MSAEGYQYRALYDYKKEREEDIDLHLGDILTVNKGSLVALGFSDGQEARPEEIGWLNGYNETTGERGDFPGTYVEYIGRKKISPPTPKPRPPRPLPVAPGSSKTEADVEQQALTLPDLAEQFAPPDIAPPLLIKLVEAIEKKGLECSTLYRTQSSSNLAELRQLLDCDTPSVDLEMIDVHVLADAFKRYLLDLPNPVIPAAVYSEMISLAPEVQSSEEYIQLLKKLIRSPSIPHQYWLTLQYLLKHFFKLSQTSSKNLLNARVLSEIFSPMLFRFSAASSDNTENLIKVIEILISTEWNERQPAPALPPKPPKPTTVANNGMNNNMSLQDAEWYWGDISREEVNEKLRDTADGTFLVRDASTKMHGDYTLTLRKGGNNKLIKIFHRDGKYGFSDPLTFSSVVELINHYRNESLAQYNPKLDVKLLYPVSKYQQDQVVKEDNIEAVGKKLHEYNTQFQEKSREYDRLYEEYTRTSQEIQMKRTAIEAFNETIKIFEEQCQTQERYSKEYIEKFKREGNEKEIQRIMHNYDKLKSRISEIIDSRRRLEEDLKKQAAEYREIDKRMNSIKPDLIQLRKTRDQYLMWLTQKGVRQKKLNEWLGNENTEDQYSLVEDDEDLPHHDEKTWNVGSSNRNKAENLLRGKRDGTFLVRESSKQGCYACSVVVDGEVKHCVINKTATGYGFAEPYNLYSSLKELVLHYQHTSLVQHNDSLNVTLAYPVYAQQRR
Chain of cGMP-dependent 3',5'-cyclic phosphodiesterase (O00408 whole entry): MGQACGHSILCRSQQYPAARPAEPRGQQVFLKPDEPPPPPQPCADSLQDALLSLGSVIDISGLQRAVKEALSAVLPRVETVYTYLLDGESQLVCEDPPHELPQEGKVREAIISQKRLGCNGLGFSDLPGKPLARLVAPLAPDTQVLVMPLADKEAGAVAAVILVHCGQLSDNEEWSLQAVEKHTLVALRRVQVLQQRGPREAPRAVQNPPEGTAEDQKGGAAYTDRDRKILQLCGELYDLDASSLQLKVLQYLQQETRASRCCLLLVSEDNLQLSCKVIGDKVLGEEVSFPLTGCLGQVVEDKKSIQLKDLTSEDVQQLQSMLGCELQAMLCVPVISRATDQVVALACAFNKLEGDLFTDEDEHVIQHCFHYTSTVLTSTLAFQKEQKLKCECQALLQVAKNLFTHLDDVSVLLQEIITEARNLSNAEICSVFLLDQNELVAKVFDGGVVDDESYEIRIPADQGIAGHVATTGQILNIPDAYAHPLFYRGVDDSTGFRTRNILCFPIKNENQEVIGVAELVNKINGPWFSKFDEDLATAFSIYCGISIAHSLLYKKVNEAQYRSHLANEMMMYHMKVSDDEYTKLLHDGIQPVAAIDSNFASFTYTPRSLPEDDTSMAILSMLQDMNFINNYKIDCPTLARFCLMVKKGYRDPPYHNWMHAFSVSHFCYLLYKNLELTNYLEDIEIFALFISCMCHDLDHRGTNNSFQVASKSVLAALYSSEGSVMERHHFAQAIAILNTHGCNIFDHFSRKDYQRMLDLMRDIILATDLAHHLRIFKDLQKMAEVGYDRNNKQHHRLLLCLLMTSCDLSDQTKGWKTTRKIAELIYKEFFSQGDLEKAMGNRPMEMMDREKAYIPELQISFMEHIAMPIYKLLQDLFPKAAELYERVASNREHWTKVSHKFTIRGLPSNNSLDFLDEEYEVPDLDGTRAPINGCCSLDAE
Chain of High affinity cGMP-specific 3',5'-cyclic phosphodiesterase 9A (O76083 whole entry): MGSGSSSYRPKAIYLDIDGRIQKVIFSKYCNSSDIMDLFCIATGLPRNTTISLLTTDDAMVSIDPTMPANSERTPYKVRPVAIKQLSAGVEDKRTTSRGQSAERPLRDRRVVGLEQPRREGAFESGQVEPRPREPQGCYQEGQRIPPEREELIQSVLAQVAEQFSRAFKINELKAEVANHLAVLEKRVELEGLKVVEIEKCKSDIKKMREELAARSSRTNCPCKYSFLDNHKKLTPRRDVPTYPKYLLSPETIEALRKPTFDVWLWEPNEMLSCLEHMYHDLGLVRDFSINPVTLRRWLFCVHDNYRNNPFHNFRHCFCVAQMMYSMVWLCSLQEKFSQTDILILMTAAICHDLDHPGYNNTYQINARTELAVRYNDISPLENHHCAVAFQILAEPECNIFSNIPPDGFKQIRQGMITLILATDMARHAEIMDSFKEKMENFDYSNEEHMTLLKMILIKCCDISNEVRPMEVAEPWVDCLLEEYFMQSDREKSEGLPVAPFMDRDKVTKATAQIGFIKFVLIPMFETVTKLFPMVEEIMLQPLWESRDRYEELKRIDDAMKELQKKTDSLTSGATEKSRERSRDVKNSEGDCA
Chain of cAMP and cAMP-inhibited cGMP 3',5'-cyclic phosphodiesterase 10A (Q9Y233 whole entry): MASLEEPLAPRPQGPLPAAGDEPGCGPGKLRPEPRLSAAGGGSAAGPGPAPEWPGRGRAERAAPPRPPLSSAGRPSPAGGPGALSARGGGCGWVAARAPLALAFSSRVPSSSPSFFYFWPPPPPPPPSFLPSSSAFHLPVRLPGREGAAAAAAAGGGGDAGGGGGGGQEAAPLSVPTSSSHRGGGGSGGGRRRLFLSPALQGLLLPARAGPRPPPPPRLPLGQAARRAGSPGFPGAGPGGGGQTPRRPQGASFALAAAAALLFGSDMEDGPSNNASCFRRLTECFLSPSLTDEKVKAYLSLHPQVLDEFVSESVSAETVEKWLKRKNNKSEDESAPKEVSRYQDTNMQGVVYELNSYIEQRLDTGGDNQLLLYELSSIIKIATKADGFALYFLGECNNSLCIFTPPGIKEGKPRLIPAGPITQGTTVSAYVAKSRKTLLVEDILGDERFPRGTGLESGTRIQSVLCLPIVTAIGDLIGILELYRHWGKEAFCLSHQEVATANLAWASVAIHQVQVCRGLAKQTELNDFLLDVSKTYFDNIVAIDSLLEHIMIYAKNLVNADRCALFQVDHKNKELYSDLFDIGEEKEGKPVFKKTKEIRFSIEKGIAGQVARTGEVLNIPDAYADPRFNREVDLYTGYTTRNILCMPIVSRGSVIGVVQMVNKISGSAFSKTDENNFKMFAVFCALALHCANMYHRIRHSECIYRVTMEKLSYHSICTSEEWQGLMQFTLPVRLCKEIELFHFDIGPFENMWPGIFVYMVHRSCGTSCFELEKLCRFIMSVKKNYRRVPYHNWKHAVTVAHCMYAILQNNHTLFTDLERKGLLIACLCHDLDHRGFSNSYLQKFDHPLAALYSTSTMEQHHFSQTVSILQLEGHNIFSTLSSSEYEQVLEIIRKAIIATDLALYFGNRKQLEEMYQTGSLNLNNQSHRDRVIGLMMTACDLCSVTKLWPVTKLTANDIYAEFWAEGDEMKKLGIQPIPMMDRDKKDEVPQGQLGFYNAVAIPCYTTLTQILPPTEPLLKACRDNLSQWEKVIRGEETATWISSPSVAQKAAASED

- IC50 [1]: 0.0039 µM
- IC50 [2]: 0.062 µM
- IC50 [3]: > 10 µM
- IC50 [4]: 0.36 µM
- IC50 [5]: 0.415 µM
- IC50 (Phosphodiesterase 1): > 50 µM
- IC50 [6]: > 50 µM
- IC50 (Phosphodiesterase 4): > 50 µM
- IC50 [7]: > 50 µM
- IC50 (Phosphodiesterase 6): > 50 µM
- IC50 (Phosphodiesterase 7): > 50 µM
- IC50 [8]: > 50 µM
- IC50 [9]: > 50 µM
- Vd [10]: 1.2 L/kg
- Vdu [11]: 2 L/kg
- half-life [12]: 48 min
- bioavailability [13]: 55%
- Vdu [14]: 3 L/kg
- bioavailability [15]: 100%
- fraction unbound [16]: 0.74
- fCmax [19]: 200 µM
- logD [22]: 1.1
- solubility [23]: > 10000 µg/mL
- inhibition (INH) (Cytochrome P450): Not Active
- dose excreted at 24 h [24]: 2%
- CLint scaled [27]: < 110 mL/min/kg
- CLint scaled [28]: < 40 mL/min/kg
SMILES: CCn1ncc(-c2nc3c(O[C@H]4CCN(C(=O)C5CCOCC5)C4)ncnc3n2C)c1C
- Activity (Rattus norvegicus): Non-Toxic
- fAUC [17]: 61 µM·h
- fCmax [18]: 44 µM
- Activity [20]: Non-Toxic
- Activity [21]: Non-Toxic
- Activity (Canis familiaris): Non-Toxic
- Ratio IC50 (Homo sapiens [25]): 1400
- Ratio IC50 (Homo sapiens [26]): 970
